Test results taken from patent US7138399B2, “Alkoxypyridine-derivatives” (Altana Pharma AG, priority 2002, dated 2006).

Key:
[1] = target: human inducible NO-synthase (Homo sapiens, UniProt P35228); assay: Measurement of inducible NO-synthase activity ([3H]arginine conversion); format: biochemical; conditions: crude cytosolic fraction containing human inducible NO-synthase, arginine 0.1 μM, 45 to 60 min at 37° C.; for IC50: read-out: Inhibition of iNOS activity [measured as −logIC50 (mol/l)] (converted)
Method: Measurement of Inducible NO-Synthase Activity
The assay is performed in 96-well microtiter F-plates (Greiner, Frickenhausen, FRG) in a total volume of 100 μl in the presence of 100 nM calmodulin, 226 μM CaCl2, 477 μM MgCl2, 5 μM flavin-adenine-dinucleotide (FAD), 5 μM flavin mononucleotide (FMN), 0.1 mM NADPH, 7 mM glutathione, 10 μM BH4 and 100 mM HEPES pH 7.2. Arginine concentrations are 0.1 μM for enzyme inhibition experiments. 150000 dpm of [^3H]arginine are added to the assay mixture. Enzyme reaction is started by the addition of 4 μg of a crude cytosolic fraction containing human inducible NO-synthase and the reaction mixture is incubated for 45 to 60 min at 37° C. Enzyme reaction is stopped by adding 10 μl of 2M MES-buffer pH 5.0. 50 μl of the incubation mixture are transferred into a MADP N65 filtration microtiter plate (Millipore, Eschborn, FRG) containing already 50 μl of AG-50W-X8 cation exchange resin (Biorad, München, FRG). The resin in the Na loaded form is pre-equilibrated in water and 70 μl (corresponding to 50 μl dry beads) are pipetted under heavy stirring with a 8 channel pipette into the filtration plate. After pipetting 50 μl of the enzyme reaction mixture onto the filtration plates, the plates are placed on a filtration manifold (Porvair, Shepperton, UK) and the flow through is collected in Pico scintillation plates (Packard, Meriden, Conn.). […] The total flow through of 125 μl is mixed with 175 μl of Microscint-40 scintillation cocktail (Packard) and the scintillation plate is sealed with TopSeal P-foil (Packard). Scintillation plates are counted in a szintillation counter.
For the measurement of inducible NO-synthase-inhibiting potencies of compounds increasing concentrations of inhibitors were included into the incubation mixture. IC50-values were calculated from the percent inhibition at given concentrations by nonlinear least square fitting.

IC50 [1]	melting point	Structure (SMILES)	Inhibition of iNOS activity [measured as −logIC50 (mol/l)] [1]
38 nM	176 to 178 °C	COc1ccnc(CCc2nc3cc(-c4ccc(N(C)C)cc4)cnc3[nH]2)c1 [compound 29, 2-[2-(4-Methoxypyridin-2-yl)ethyl]-6-(4-N,N-dimethylaminophenyl)-3H-imidazo[4,5-b]pyridine]	
75.9 nM	185 to 186 °C	COc1ccnc(CCc2nc3cc(-c4ccc(OC)c(OC)c4)cnc3[nH]2)c1 [compound 31, 2-[2-(4-Methoxypyridin-2-yl)ethyl]-6-(3,4-dimethoxyphenyl)-3H-imidazo[4,5-b]pyridine]	
45.7 nM		COc1ccnc(CCc2nc3cc(CCc4ccccc4)cnc3[nH]2)c1 [compound 14, 2-[2-(4-Methoxypyridin-2-yl)ethyl]-6-(2-phenylethyl)-3H-imidazo[4,5-b]pyridine]	
34.7 nM		COc1ccnc(CCc2nc3cc(-c4ccc(C)cc4)cnc3[nH]2)c1 [compound 25, 2-[2-(4-Methoxypyridin-2-yl)ethyl]-6-p-tolyl-3H-imidazo[4,5-b]pyridine]	
45.7 nM	161 to 162 °C	COc1ccnc(CCc2nc3cc(-c4ccc(OCc5ccccc5)cc4)cnc3[nH]2)c1 [compound 32, 2-[2-(4-Methoxypyridin-2-yl)ethyl]-6-(4-benzyloxyphenyl)-3H-imidazo[4,5-b]pyridine]	
44.7 nM	206 to 208 °C	COc1ccnc(CCc2nc3cc(-c4ccc(O)cc4)cnc3[nH]2)c1 [compound 28, 2-[2-(4-Methoxypyridin-2-yl)ethyl]-6-(4-hydroxyphenyl)-3H-imidazo-[4,5-b]pyridine]	
69.2 nM		COc1ccnc(CCc2nc3cc(C)cnc3[nH]2)c1 [compound 11, 2-[2-(4-Methoxypyridin-2-yl)ethyl]-6-methyl-3H-imidazo[4,5-b]pyridine]	
89.1 nM		COc1ccnc(CCc2nc3cc(-c4cccnc4)cnc3[nH]2)c1 [compound 26, 2-[2-(4-Methoxypyridin-2-yl)ethyl]-6-(pyridin-3-yl)-3H-imidazo-[4,5-b]pyridine]	
		COc1ccnc(CCc2nc3cc(-c4ccc(Cl)c(Cl)c4)cnc3[nH]2)c1 [compound 15, 2-[2-(4-Methoxypyridin-2-yl)ethyl]-6-(3,4-dichlorphenyl)-3H-imidazo[4,5-b]pyridine]	7.33
67.6 nM	220 to 221 °C	COc1ccnc(CCc2nc3cc(-c4ccc(NC(C)=O)cc4)cnc3[nH]2)c1 [compound 36, N-(4-{2-[2-(4-Methoxypyridin-2-yl)ethyl]-3H-imidazo[4,5-b]pyridin-6-yl}phenyl)-acetamide]	
		COc1ccnc(CCc2nc3cc(-c4ccc(Br)cc4)cnc3[nH]2)c1 [compound 16, 2-[2-(4-Methoxypyridin-2-yl)ethyl]-6-(4-bromphenyl)-3H-imidazo[4,5-b]pyridine]	7.36
33.9 nM	241 to 242 °C	COc1ccnc(CCc2nc3cc(-c4ccc(C#N)cc4)cnc3[nH]2)c1 [compound 34, 2-[2-(4-Methoxypyridin-2-yl)ethyl]-6-(4-cyanophenyl)-3H-imidazo[4,5-b]pyridine]	
89.1 nM		COc1ccnc(CCc2nc3cc(C(F)(F)F)cnc3[nH]2)c1 [compound 9, 2-[2-(4-Methoxypyridin-2-yl)ethyl]-6-trifluoromethyl-3H-imidazo[4,5-b]pyridine]	
		COc1ccnc(CCc2nc3cc(-c4ccc(C(F)(F)F)cc4)cnc3[nH]2)c1 [compound 30, 2-[2-(4-Methoxypyridin-2-yl)ethyl]-6-(4-trifluormethylphenyl)-3H-imidazo[4,5-b]pyridine]	7.55
63.1 nM	251 to 253 °C	COc1ccnc(CCc2nc3cc(-c4ccc(NS(=O)(=O)c5ccccc5)cc4)cnc3[nH]2)c1 [compound 37, N-(4-{2-[2-(4-Methoxypyridin-2-yl)ethyl]-3H-imidazo[4,5-b]pyridin-6-yl}phenyl)-benzenesulfonamide]	
38.9 nM		COc1ccnc(CCc2nc3cc(-c4ccccc4)cnc3[nH]2)c1 [compound 10, 2-[2-(4-Methoxypyridin-2-yl)ethyl]-6-phenyl-3H-imidazo[4,5-b]pyridine]	
61.7 nM	117 to 119 °C	COc1ccnc(CCc2nc3cc(-c4ccc(N)cc4)cnc3[nH]2)c1 [compound 27, 2-[2-(4-Methoxypyridin-2-yl)ethyl]-6-(4-aminophenyl)-3H-imidazo-[4,5-b]pyridine]	
		COc1ccnc(CCc2nc3cc(-c4ccc(OCc5ccccc5)c(F)c4)cnc3[nH]2)c1 [compound 33, 2-[2-(4-Methoxypyridin-2-yl)ethyl]-(4-benzyloxy-3-fluorophenyl)-3H-imidazo[4,5-b]pyridine]	7.29
32.4 nM		COc1ccnc(CCc2nc3cc(I)cnc3[nH]2)c1 [compound 7, 2-[2-(4-Methoxypyridin-2-yl)ethyl]-6-iodo-3H-imidazo[4,5-b]pyridine]	
